Source: patent publication US10173991B2, “Sulfone amide linked benzothiazole inhibitors of endothelial lipase” (BRISTOL-MYERS SQUIBB COMPANY, priority 2014, dated 2019)

These compounds were tested against Endothelial lipase (EL) (Homo sapiens (Human), UniProt Q9Y5X9) (assay: Endothelial lipase (EL) enzymatic assay with fluorescent substrate A10070 in DMPG vesicles).
Assay type: biochemical
How it was run: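 Compounds were preincubated with enzyme for 30 min at 37° C before FRET-substrate vesicles (A10070 in DMPG, 0.11 mole fraction) were added. Reaction rates were obtained from the 300–900 sec slope of fluorescence at 490/530 nm.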

Chain of Endothelial lipase (EL) (Q9Y5X9 21-500): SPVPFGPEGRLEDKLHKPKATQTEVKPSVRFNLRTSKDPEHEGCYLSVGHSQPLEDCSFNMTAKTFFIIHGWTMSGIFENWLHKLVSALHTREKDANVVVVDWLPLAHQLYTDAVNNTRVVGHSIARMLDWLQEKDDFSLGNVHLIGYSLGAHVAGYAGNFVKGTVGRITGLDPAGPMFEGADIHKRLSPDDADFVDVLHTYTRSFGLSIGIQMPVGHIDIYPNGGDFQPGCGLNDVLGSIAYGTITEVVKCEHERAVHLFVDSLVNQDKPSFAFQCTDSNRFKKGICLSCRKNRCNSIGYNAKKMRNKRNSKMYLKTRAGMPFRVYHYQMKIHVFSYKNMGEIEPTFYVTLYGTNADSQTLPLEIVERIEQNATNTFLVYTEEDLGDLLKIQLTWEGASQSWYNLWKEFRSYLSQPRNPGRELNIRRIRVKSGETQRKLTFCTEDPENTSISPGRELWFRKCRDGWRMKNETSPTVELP

`COCCS(=O)(=O)C(C(=O)NCC(=O)NC1CC1)c1nc2cc(F)c(-c3ccc4[nH]c(=O)ccc4c3)cc2s1` (stereo not drawn) [Example 149, N-[(cyclopropyl-carbamoyl)methyl]-2-[5-fluoro-6-(2-oxo-1,2-dihydroquinolin-6-yl)-1,3-benzothiazol-2-yl]-2-(2-methoxyethane-sulfonyl) acetamide] and `COCCS(=O)(=O)C(C(=O)NCC(=O)NC1CC1)c1nc2cc(C)c(-c3ccc4[nH]c(=O)ccc4c3)cc2s1` (stereo not drawn) [Example 151, N-[(cyclopropyl-carbamoyl)methyl]-2-(2-methoxyethane-sulfonyl)-2-[5-methyl-6-(2-oxo-1,2-dihydroquinolin-6-yl)-1,3-benzothiazol-2-yl]acetamide] are the same in IC50: 2 nM for the first, 2 nM for the second.

Going from `COCCS(=O)(=O)C(C(=O)NCC(=O)NC1CC1)c1nc2cc(F)c(-c3ccc4c(c3)CNC4=O)cc2s1` (stereo not drawn) [Example 150, N-[(cyclopropyl-carbamoyl)methyl]-2-[5-fluoro-6-(1-oxo-2,3-dihydro-1H-isoindol-5-yl)-1,3-benzothiazol-2-yl]-2-(2-methoxyethane-sulfonyl) acetamide] to `COCCS(=O)(=O)C(C(=O)NCC(=O)NC1CC1)c1nc2cc(F)c(-c3ccc4c(c3)C(=O)NC4)cc2s1` (stereo not drawn) [Example 154, N-[(cyclopropyl-carbamoyl)methyl]-2-[5-fluoro-6-(3-oxo-2,3-dihydro-1H-isoindol-5-yl)-1,3-benzothiazol-2-yl]-2-(2-methoxyethane-sulfonyl) acetamide], the IC50 rises from 2 nM to 5 nM (2.5-fold).

First: COCCS(=O)(=O)C(C(=O)NCC(=O)NC1CC1)c1nc2cc(F)c(-c3ccc4c(cnn4C)c3)cc2s1 (stereo not drawn) [Example 152, N-[(cyclopropyl-carbamoyl)methyl]-2-[5-fluoro-6-(1-methyl-1H-indazol-5-yl)-1,3-methoxyethane-sulfonyl) acetamide]
Second: COCCS(=O)(=O)C(C(=O)NCC(=O)NC1CC1)c1nc2cc(F)c(-c3ccc(C)nc3)cc2s1 (stereo not drawn) [Example 158, N-[(cyclopropyl-carbamoyl)methyl]-2-[5-fluoro-6-(6-methylpyridin-3-yl)-1,3-benzothiazol-2-yl]-2-(2-methoxyethane-sulfonyl) acetamide]
The IC50 of the first is 3.7-fold lower: 3 nM for the first, 11 nM for the second. The first is the more potent here.

Compared with `COCCS(=O)(=O)C(C(=O)NCC(=O)NC1CC1)c1nc2cc(F)c(-c3ccc4c(=O)n(C)ccc4c3)cc2s1` (stereo not drawn) [Example 153, N-[(cyclopropyl-carbamoyl)methyl]-2-[5-fluoro-6-(2-methyl-1-oxo-1,2-dihydro-isoquinolin-6-yl)-1,3-benzothiazol-2-yl]-2-(2-methoxyethane-sulfonyl) acetamide], `COCCS(=O)(=O)C(C(=O)NCC(=O)NC1CC1)c1nc2cc(C)c(-c3ccn(C)c(=O)c3)cc2s1` (stereo not drawn) [Example 172, N-[(cyclopropyl-carbamoyl)methyl]-2-(2-methoxyethane-sulfonyl)-2-[5-methyl-6-(1-methyl-2-oxo-1,2-dihydropyridin-4-yl)-1,3-benzothiazol-2-yl]acetamide] is 9-fold higher in IC50: 3 nM for the first, 27 nM for the second. The first is the more potent here.

First: COCCS(=O)(=O)C(C(=O)NCC(=O)NC1CC1)c1nc2cc(F)c(-c3cnc(C4CC4)nc3)cc2s1 (stereo not drawn) [Example 155, N-[(cyclopropyl-carbamoyl)methyl]-2-[6-(2-cyclopropyl-pyrimidin-5-yl)-5-fluoro-1,3-benzothiazol-2-yl]-2-(2-methoxyethane-sulfonyl) acetamide]
Second: COCCS(=O)(=O)C(C(=O)NCC(=O)NC1CC1)c1nc2cc(C)c(-c3cnc(C4CC4)nc3)cc2s1 (stereo not drawn) [Example 163, N-[(cyclopropyl-carbamoyl)methyl]-2-[6-(2-cyclopropyl-pyrimidin-5-yl)-5-methyl-1,3-benzothiazol-2-yl]-2-(2-methoxyethane-sulfonyl) acetamide]
The IC50 of the first is 2.3-fold lower: 7 nM for the first, 16 nM for the second. The first is the more potent here.

Compared with `COCCS(=O)(=O)C(C(=O)NCC(=O)NC1CC1)c1nc2cc(F)c(-c3cnc(C)nc3)cc2s1` (stereo not drawn) [Example 156, N-[(cyclopropyl-carbamoyl)methyl]-2-[5-fluoro-6-(2-methylpyrimidin-5-yl)-1,3-benzothiazol-2-yl]-2-(2-methoxyethane-sulfonyl) acetamide], `COCCS(=O)(=O)C(C(=O)NCC(=O)NC1CC1)c1nc2cc(C)c(-c3cnc(C)nc3)cc2s1` (stereo not drawn) [Example 174, N-[(cyclopropyl-carbamoyl)methyl]-2-(2-methoxyethane-sulfonyl)-2-[5-methyl-6-(2-methylpyrimidin-5-yl)-1,3-benzothiazol-2-yl]acetamide] is 3.2-fold higher in IC50: 11 nM for the first, 35 nM for the second.

First: COCCS(=O)(=O)C(C(=O)NCC(=O)NC1CC1)c1nc2cc(C(F)(F)F)c(-c3cccc(C(=O)N(C)C)c3)cc2s1 (stereo not drawn) [Example 157, 3-[2-({[(cyclopropyl-carbamoyl)methyl]carbamoyl}(2-methoxyethane-sulfonyl)methyl)-5-(trifluoromethyl)-1,3-benzothiazol-6-yl]-N,N-dimethylbenzamide]
Second: CC(C)S(=O)(=O)C(C(=O)NCC(=O)NC1CC1)c1nc2cc(C(F)(F)F)c(-c3cccc(C(=O)N(C)C)c3)cc2s1 (stereo not drawn) [Example 175, 3-[2-({[(cyclopropyl-carbamoyl)methyl]carbamoyl} (propane-2-sulfonyl)methyl)-5-(trifluoromethyl)-1,3-benzothiazol-6-yl]-N,N-dimethyl-benzamide]
The IC50 of the first is 3.4-fold lower: 11 nM for the first, 37 nM for the second. The first is the more potent here.

`COCCS(=O)(=O)C(C(=O)NCC(=O)NC1CC1)c1nc2cc(F)c(-c3ccc(C4CC4)nc3)cc2s1` (stereo not drawn) [Example 159, N-[(cyclopropyl-carbamoyl)methyl]-2-[6-(6-cyclopropyl-pyridin-3-yl)-5-fluoro-1,3-benzothiazol-2-yl]-2-(2-methoxyethane-sulfonyl) acetamide] and `COCCS(=O)(=O)C(C(=O)NCC(=O)NC1CC1)c1nc2cc(C(F)(F)F)c(-c3ccc(C4CC4)nc3)cc2s1` (stereo not drawn) [Example 164, N-[(cyclopropyl-carbamoyl)methyl]-2-[6-(6-cyclopropyl-pyridin-3-yl)-5-(trifluoromethyl)-1,3-benzothiazol-2-yl]-2-(2-methoxyethane-sulfonyl) acetamide] are within 1.5-fold of each other in IC50: 12 nM for the first, 17 nM for the second.

Compared with `COCCS(=O)(=O)C(C(=O)NCC(=O)NC1CC1)c1nc2cc(F)c(-c3ccc(=O)n(C(C)C)c3)cc2s1` (stereo not drawn) [Example 160, N-[(cyclopropyl-carbamoyl)methyl]-2-{5-fluoro-6-[6-oxo-1-(propan-2-yl)-1,6-dihydropyridin-3-yl]-1,3-benzothiazol-2-yl}-2-(2-methoxyethane-sulfonyl) acetamide], `COCCS(=O)(=O)C(C(=O)NCC(=O)NC1CC1)c1nc2cc(F)c(-c3ccc(F)nc3)cc2s1` (stereo not drawn) [Example 171, N-[(cyclopropyl-carbamoyl)methyl]-2-[5-fluoro-6-(6-fluoropyridin-3-yl)-1,3-benzothiazol-2-yl]-2-(2-methoxyethane-sulfonyl) acetamide] is 2.2-fold higher in IC50: 12 nM for the first, 27 nM for the second. The first is the more potent here.

`COCCS(=O)(=O)C(C(=O)NCC(=O)NC1CC1)c1nc2cc(F)c(-c3ccc(C(=O)N4CCOCC4)cc3)cc2s1` (stereo not drawn) [Example 161, N-[(cyclopropyl-carbamoyl)methyl]-2-{5-fluoro-6-[4-(morpholine-4-carbonyl)phenyl]-1,3-benzothiazol-2-yl}-2-(2-methoxyethane-sulfonyl) acetamide] and `COCCS(=O)(=O)C(C(=O)NCC(=O)NC1CC1)c1nc2cc(C(F)(F)F)c(-c3ccc(C(=O)N4CCOCC4)cc3)cc2s1` (stereo not drawn) [Example 166, N-[(cyclopropyl-carbamoyl)methyl]-2-(2-methoxyethane-sulfonyl)-2-{6-[4-(morpholine-4-arbonyl)phenyl]-5-(trifluoromethyl)-1,3-benzothiazol-2-yl}acetamide] are within 1.5-fold of each other in IC50: 14 nM for the first, 20 nM for the second.

`COCCS(=O)(=O)C(C(=O)NCC(=O)NC1CC1)c1nc2cc(C(F)(F)F)c(-c3ccnn3C)cc2s1` (stereo not drawn) [Example 162, N-[(cyclopropyl-carbamoyl)methyl]-2-(2-methoxyethane-sulfonyl)-2-[6-(1-methyl-1H-pyrazol-5-yl)-5-(trifluoromethyl)-1,3-benzothiazol-2-yl]acetamide] and `COCCS(=O)(=O)C(C(=O)NCC(=O)NC1CC1)c1nc2cc(F)c(-c3ccnn3C)cc2s1` (stereo not drawn) [Example 167, N-[(cyclopropyl-carbamoyl)methyl]-2-[5-fluoro-6-(1-methyl-1H-pyrazol-5-yl)-1,3-benzothiazol-2-yl]-2-(2-methoxyethane-sulfonyl) acetamide] are within 1.5-fold of each other in IC50: 16 nM for the first, 23 nM for the second.

Compared with `COCCS(=O)(=O)C(C(=O)NCC(=O)NC1CC1)c1nc2cc(C(F)(F)F)c(Br)cc2s1` (stereo not drawn) [Example 165, 2-[6-bromo-5-(trifluoromethyl)-1,3-benzothiazol-2-yl]-N-[(cyclopropyl-carbamoyl)methyl]-2-(2-methoxyethane-sulfonyl) acetamide], `COCCS(=O)(=O)C(C(=O)NCC(=O)NC1CC1)c1nc2cc(C(F)(F)F)c(-c3ccc(F)nc3)cc2s1` (stereo not drawn) [Example 173, N-[(cyclopropyl-carbamoyl)methyl]-2-[6-(6-fluoropyridin-3-yl)-5-(trifluoromethyl)-1,3-benzothiazol-2-yl]-2-(2-methoxyethane-sulfonyl) acetamide] is 1.8-fold higher in IC50: 18 nM for the first, 32 nM for the second.

`CC(C)S(=O)(=O)C(C(=O)NCC(=O)NC1CC1)c1nc2cc(C(F)(F)F)c(-c3ccc(C(=O)N4CCOCC4)cc3)cc2s1` (stereo not drawn) [Example 168, N-[(cyclopropyl-carbamoyl)methyl]-2-{6-[4-(morpholine-4-carbonyl)phenyl]-5-(trifluoromethyl)-1,3-benzothiazol-2-yl}-2-(propane-2-sulfonyl) acetamide] and `CC(C)S(=O)(=O)C(C(=O)NCC(=O)NC1CC1)c1nc2cc(C(F)(F)F)c(-c3ccc(F)nc3)cc2s1` (stereo not drawn) [Example 170, N-[(cyclopropyl-carbamoyl)methyl]-2-[6-(6-fluoropyridin-3-yl)-5-(trifluoromethyl)-1,3-benzothiazol-2-yl]-2-(propane-2-sulfonyl) acetamide] are within 1.5-fold of each other in IC50: 24 nM for the first, 27 nM for the second.

With `CC(C)S(=O)(=O)C(C(=O)NCC(=O)NC1CC1)c1nc2cc(C(F)(F)F)c(-c3ccccc3)cc2s1` (stereo not drawn) [Example 169, N-[(cyclopropyl-carbamoyl)methyl]-2-[6-phenyl-5-(trifluoromethyl)-1,3-benzothiazol-2-yl]-2-(propane-2-sulfonyl) acetamide] the IC50 was 26 nM.
